Source: patent US11524968B2, “Heterocyclic compound as a protein kinase inhibitor” (HK inno.N Corporation, priority 2017, dated 2022)

Target: JAK1 (Homo sapiens (Human), UniProt P23458)
Assay: Analysis of JAK1 activity inhibition ability (ADP-Glo Kinase Assay)
Type: biochemical
Details: JAK1 enzyme, ADP-Glo luminescence, ATP 250 uM, IRS-itide substrate, 30° C. 40 minutes; read-out: IC50
Summary of the method: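 ADP-Glo luminescence read-out of ADP production, with IC50 taken as the concentration halving JAK1 activity relative to control. Enzyme was incubated 40 min at 30 °C with compound, IRS-itide (40 ng/mL) and ATP (250 uM), concentrations as prepared in pH 7.5 Tris-HCl/MgCl2/BSA/DTT buffer.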

Sequence of JAK1 (P23458 whole entry): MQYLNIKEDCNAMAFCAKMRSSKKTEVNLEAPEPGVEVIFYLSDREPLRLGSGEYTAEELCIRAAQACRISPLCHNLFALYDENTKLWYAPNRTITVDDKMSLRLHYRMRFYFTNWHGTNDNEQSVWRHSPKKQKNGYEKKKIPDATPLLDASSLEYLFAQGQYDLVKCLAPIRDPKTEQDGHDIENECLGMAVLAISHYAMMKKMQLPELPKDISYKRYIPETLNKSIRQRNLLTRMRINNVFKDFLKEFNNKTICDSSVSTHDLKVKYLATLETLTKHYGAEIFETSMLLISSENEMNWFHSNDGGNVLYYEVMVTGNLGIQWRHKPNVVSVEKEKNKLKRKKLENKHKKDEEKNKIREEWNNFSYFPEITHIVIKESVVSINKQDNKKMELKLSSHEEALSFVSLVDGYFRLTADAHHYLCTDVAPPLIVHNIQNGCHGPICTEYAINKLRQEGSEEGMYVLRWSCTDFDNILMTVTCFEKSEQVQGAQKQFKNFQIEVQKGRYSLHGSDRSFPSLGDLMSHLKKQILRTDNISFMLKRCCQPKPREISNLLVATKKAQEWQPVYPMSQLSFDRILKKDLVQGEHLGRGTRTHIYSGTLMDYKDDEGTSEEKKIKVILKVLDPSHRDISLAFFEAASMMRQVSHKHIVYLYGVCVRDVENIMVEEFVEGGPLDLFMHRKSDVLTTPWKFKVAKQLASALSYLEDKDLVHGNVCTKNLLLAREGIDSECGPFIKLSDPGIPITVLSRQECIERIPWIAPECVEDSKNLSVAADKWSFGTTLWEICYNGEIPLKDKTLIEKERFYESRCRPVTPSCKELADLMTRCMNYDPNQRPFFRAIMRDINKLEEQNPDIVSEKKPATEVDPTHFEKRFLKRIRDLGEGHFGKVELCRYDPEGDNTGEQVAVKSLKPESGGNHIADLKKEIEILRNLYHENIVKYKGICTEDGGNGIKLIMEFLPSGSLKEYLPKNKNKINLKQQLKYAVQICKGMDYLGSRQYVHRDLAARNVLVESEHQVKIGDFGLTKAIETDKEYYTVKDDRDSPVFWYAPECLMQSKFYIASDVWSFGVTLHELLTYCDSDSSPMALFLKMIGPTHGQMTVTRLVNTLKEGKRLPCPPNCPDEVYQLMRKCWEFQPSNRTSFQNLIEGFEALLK

Row | SMILES | IC50
1 | CCCS(=O)(=O)Nc1ccc(-c2nc(NC(=O)C3CC3)nc3[nH]ccc23)cc1F [Example 206, N-(4-(3-fluoro-4-(propylsulfonamido)phenyl)-7H-pyrrolo[2,3-d]pyrimidin-2-yl)cyclopropanecarboxamide] | 0.02 to 0.2 µM
2 | COc1ccc(S(=O)(=O)Nc2ccc(-c3cc(NC(=O)C4CC4)nc4[nH]ccc34)cc2)cn1 [Example 23, N-(4-(4-((6-methoxypyridine)-3-sulfonamido)phenyl)-1H-pyrrolo[2,3-b]pyridin-6-yl)cyclopropanecarboxamide] | < 0.02 µM
3 | CCNC(=S)N1CC=C(c2cc(NC(=O)C3CC3)nc3[nH]ccc23)CC1 [Example 468, N-(4-(1-(ethylcarbamothioyl)-1,2,3,6-tetrahydropyridin-4-yl)-1H-pyrrolo[2,3-b]pyridin-6-yl)cyclopropanecarboxamide] | 0.02 to 0.2 µM
4 | Cc1cc(CC(=O)N2CCS(=O)(=O)CC2)ccc1-c1cc(NC(=O)C2CC2)nc2[nH]ccc12 [Example 545, N-(4-(4-(2-(1,1-dioxidothiomorpholino)-2-oxoethyl)-2-methylphenyl)-1H-pyrrolo[2,3-b]pyridin-6-yl)cyclopropanecarboxamide] | 0.02 to 0.2 µM
5 | O=C(Nc1cc(-c2ccc(CNC3CCS(=O)(=O)C3)cc2)c2cc[nH]c2n1)C1CC1 (stereo not drawn) [Example 595, N-(4-(4-(((1,1-dioxidotetrahydrothiophen-3-yl)amino)methyl)phenyl)-1H-pyrrolo[2,3-b]pyridin-6-yl)cyclopropanecarboxamide] | 0.02 to 0.2 µM
6 | O=C(Nc1cc(-c2ccc(NS(=O)(=O)CC3CCOC3)c(F)c2)c2cc[nH]c2n1)C1CC1 (stereo not drawn) [Example 72, N-(4-(3-fluoro-4-(((tetrahydrofuran-3-yl)methyl)sulfonamido)phenyl)-1H-pyrrolo[2,3-b]pyridin-6-yl)cyclopropanecarboxamide] | < 0.02 µM
7 | O=C(Nc1cc(C2=CCN(C(=O)CCC(F)(F)F)CC2)c2cc[nH]c2n1)C1CC1 [Example 254, N-(4-(1-(4,4,4-trifluorobutanoyl)-1,2,3,6-tetrahydropyridin-4-yl)-1H-pyrrolo[2,3-b]pyridin-6-yl)cyclopropanecarboxamide] | 0.02 to 0.2 µM
8 | COc1cccc(C(=O)N2CC=C(c3cc(NC(=O)C4CC4)nc4[nH]ccc34)C(C)C2)c1 (stereo not drawn) [Example 330, N-(4-(1-(3-methoxybenzoyl)-3-methyl-1,2,3,6-tetrahydropyridin-4-yl)-1H-pyrrolo[2,3-b]pyridin-6-yl)cyclopropanecarboxamide] | 0.02 to 0.2 µM
9 | Cc1ncc(C(=O)N2CC=C(c3cc(NC(=O)C4CC4)nc4[nH]ccc34)C(C)C2)s1 (stereo not drawn) [Example 306, N-(4-(3-methyl-1-(2-methylthiazole-5-carbonyl)-1,2,3,6-tetrahydropyridin-4-yl)-1H-pyrrolo[2,3-b]pyridin-6-yl)cyclopropanecarboxamide] | 0.02 to 0.2 µM
10 | CCCS(=O)(=O)NCc1ccc(-c2cc(NC(=O)C3CC3)nc3[nH]ccc23)cc1 [Example 583, N-(4-(4-(propylsulfonamidomethyl)phenyl)-1H-pyrrolo[2,3-b]pyridin-6-yl)cyclopropanecarboxamide] | 0.02 to 0.2 µM
11 | CCCC1C=C(c2cc(NC(=O)C3CC3)nc3[nH]ccc23)CCN1C(=O)CC#N (stereo not drawn) [Example 411, N-(4-(1-(2-cyanoacetyl)-6-propyl-1,2,3,6-tetrahydropyridin-4-yl)-1H-pyrrolo[2,3-b]pyridin-6-yl)cyclopropanecarboxamide] | 0.02 to 0.2 µM
12 | O=C(Nc1cc(C2CC3CCC(C2)N3C(=O)C2CC2)c2cc[nH]c2n1)C1CC1 (stereo not drawn) [Example 650, N-(4-(8-(cyclopropanecarbonyl)-8-azabicyclo[3.2.1]octan-3-yl)-1H-pyrrolo[2,3-b]pyridin-6-yl)cyclopropanecarboxamide] | > 0.2 µM
13 | O=C(Nc1cc(-c2ccc(NC3CCN(C(=O)NCC(F)(F)F)CC3)cc2)c2cc[nH]c2n1)C1CC1 [Example 512, 4-((4-(6-(cyclopropanecarboxamido)-1H-pyrrolo[2,3-b]pyridin-4-yl)phenyl)amino)-N-(2,2,2-trifluoroethyl)piperidine-1-carboxamide] | 0.02 to 0.2 µM
14 | O=C(Nc1cc(-c2ccc(NC3CCN(C(=O)CC(F)(F)F)CC3)cc2)c2cc[nH]c2n1)C1CC1 [Example 518, N-(4-(4-((1-(3,3,3-trifluoropropanoyl)piperidin-4-yl)amino)phenyl)-1H-pyrrolo[2,3-b]pyridin-6-yl)cyclopropanecarboxamide] | > 0.2 µM
15 | CC1CN(C(=O)c2ccc(Cl)c(Cl)c2)CC=C1c1cc(NC(=O)C2CC2)nc2[nH]ccc12 (stereo not drawn) [Example 353, N-(4-(1-(3,4-dichlorobenzoyl)-3-methyl-1,2,3,6-tetrahydropyridin-4-yl)-1H-pyrrolo[2,3-b]pyridin-6-yl)cyclopropanecarboxamide] | 0.02 to 0.2 µM
16 | CCCS(=O)(=O)N1CCN(c2nc(NC(=O)C3CC3)nc3[nH]ccc23)CC1 [Example 668, N-(4-(4-(propylsulfonyl)piperazin-1-yl)-7H-pyrrolo[2,3-d]pyrimidin-2-yl)cyclopropanecarboxamide] | > 0.2 µM
17 | O=C(Nc1cc(-c2ccc(NS(=O)(=O)CC3CC3)c(F)c2)c2cc[nH]c2n1)C1CC1 [Example 80, N-(4-(4-((cyclopropylmethyl)sulfonamido)-3-fluorophenyl)-1H-pyrrolo[2,3-b]pyridin-6-yl)cyclopropanecarboxamide] | < 0.02 µM
18 | O=C(Nc1cc(C2=CC3CCCC(C2)N3C(=O)c2ccnc(F)c2)c2cc[nH]c2n1)C1CC1 (stereo not drawn) [Example 366, N-(4-(9-(2-fluoroisonicotinoyl)-9-azabicyclo[3.3.1]non-2-en-3-yl)-1H-pyrrolo[2,3-b]pyridin-6-yl)cyclopropanecarboxamide] | < 0.02 µM
19 | N#CCC(=O)N1CCC(Nc2ccc(-c3cc(NC(=O)C4CC4)nc4[nH]ccc34)cc2)CC1 [Example 516, N-(4-(4-((1-(2-cyanoacetyl)piperidin-4-yl)amino)phenyl)-1H-pyrrolo[2,3-b]pyridin-6-yl)cyclopropanecarboxamide] | 0.02 to 0.2 µM
20 | O=C(Nc1cc(C2=CCN(C(=O)c3cnon3)CC2)c2cc[nH]c2n1)C1CC1 [Example 286, N-(4-(1-(1,2,5-oxadiazole-3-carbonyl)-1,2,3,6-tetrahydropyridin-4-yl)-1H-pyrrolo[2,3-b]pyridin-6-yl)cyclopropanecarboxamide] | 0.02 to 0.2 µM
21 | CC1CN(C(=O)n2ccnc2)CC=C1c1cc(NC(=O)C2CC2)nc2[nH]ccc12 (stereo not drawn) [Example 452, N-(4-(1-(1H-imidazole-1-carbonyl)-3-methyl-1,2,3,6-tetrahydropyridin-4-yl)-1H-pyrrolo[2,3-b]pyridin-6-yl)cyclopropanecarboxamide] | < 0.02 µM
22 | CCS(=O)(=O)Nc1ccc(-c2cc(NC(=O)C3CC3)nc3[nH]ccc23)c(C#N)c1 [Example 144, N-(4-(2-cyano-4-(ethylsulfonamido)phenyl)-1H-pyrrolo[2,3-b]pyridin-6-yl)cyclopropanecarboxamide] | 0.02 to 0.2 µM
23 | CC1CN(C(=O)CCC#N)CC=C1c1cc(NC(=O)C2CC2)nc2[nH]ccc12 (stereo not drawn) [Example 284, N-(4-(1-(3-cyanopropanoyl)-3-methyl-1,2,3,6-tetrahydropyridin-4-yl)-1H-pyrrolo[2,3-b]pyridin-6-yl)cyclopropanecarboxamide] | < 0.02 µM
24 | O=C(Nc1cc(C2=CCN(C(=O)CC(F)(F)F)C2)c2cc[nH]c2n1)C1CC1 [Example 428, N-(4-(1-(3,3,3-trifluoropropanoyl)-2,5-dihydro-1H-pyrrol-3-yl)-1H-pyrrolo[2,3-b]pyridin-6-yl)cyclopropanecarboxamide] | > 0.2 µM
